This note sets out measurements from patent publication US9259001B2, “5-phenyl-substituted N-(tetrazol-5-yl) aryl carboxylic acid amides and N-(triazol-5-yl) aryl carboxylic acid amides, and use thereof as herbicides” (BAYER INTELLECTUAL PROPERTY GMBH, priority 2011, dated 2016).

Molecules are shown by their SMILES.

Common to all, as to assay: Comparative tests by the post-emergence method
Type in all cases: in vivo

Test [1] has as its system Abutilon theophrasti. As to the method:
(§1) Seeds of monocotyledonous and dicotyledonous weed and crop plants are placed in sandy loam in wood-fiber pots, covered with soil and cultivated in a greenhouse under good growth conditions. 2 to 3 weeks after sowing, the test plants are treated at the one-leaf stage. The inventive compounds formulated in the form of wettable powders (WP) or as emulsion concentrates (EC) are then sprayed onto the green parts of the plants as an aqueous suspension or emulsion at a water application rate of 600 to 800 I/ha (converted) with addition of 0.2% wetting agent. After the test plants have been left to stand in the greenhouse under optimal growth conditions for about 3 weeks, the action of the formulations is assessed visually in comparison to untreated controls (herbicidal action in percent (%): 100% activity=the plants have died, 0% activity=like control plants). Here, the compounds Nos. 1-02, 1-03, 1-05, 1-06, 1-14, 1-15, 2-01, 2-02, 2-03, 2-04, 2-05, 2-06, 2-16, 2-17, 2-18, 2-19, 2-20, 2-21, 2-22, 2-23, 2-24, 2-25, 2-26, 2-27, 2-28, 2-29, 2-30, 2-31, 2-33, 2-34, 2-35, 2-39, 2-40, 2-41, 2-43, 2-44, 2-45, 2-46, 2-47, 2-48, 2-49, 2-50, 2-51, 2-52, 2-53, 2-60, 2-61, 2-62, 2-63, 2-64, 2-65, 2-69 and 2-83 each show, at an application rate of 80 g/ha, an activity of at least 80% against Abutilon theophrasti and Veronica persica. The compounds Nos. 1-14, 2-32, 2-42, 2-66, 2-67, 2-69 and 2-83, at an application rate of 80 g/ha, each show an activity of at least 80% against Amaranthus retroflexus and Stellaria media.
(§2) For comparative tests, the compound No. 1-15 according to the invention and the compounds No. 118 and No. 119 known from EP 0 049 071 A1 were tested by the post-emergence method at various dosages against a number of harmful plants.
(§3) ABUTH Abutilon theophrasti PHBPU Pharbitis purpureum

Test [2] deals with Pharbitis purpureum. As to the method: as §1, §2, §3
Test [3] relates to Veronica persica. As to the method:
as §1, §2

Regarding `CCC(C)(CC)c1nnc(NC(=O)c2c(OC)cccc2OC)[nH]1` [Compound No. 118, N-[5-(1-ethyl-1-methylpropyl)-4H-1,2,4-triazol-3-yl]-2,6-dimethoxybenzamide], the “Herbicidal action against ABUTH” value in test [1] (dosage 5 g/ha), in test [1] (dosage 20 g/ha) and in test [1] (dosage 80 g/ha) was 0% each time. Further, the “Herbicidal action against PHBPU” value in test [2] (dosage 5 g/ha), in test [2] (dosage 20 g/ha) and in test [2] (dosage 80 g/ha) was 0% in each case. Besides, the “Herbicidal action against VERPE” value in test [3] (dosage 5 g/ha), in test [3] (dosage 20 g/ha) and in test [3] (dosage 80 g/ha) was 0% in each case.

Consider `COc1cccc(OC)c1C(=O)Nc1nc[nH]n1` [Compound No. 119, N-(1H-1,2,4-triazol-3-yl)-2,6-dimethoxybenzamide], for which the “Herbicidal action against ABUTH” value in test [1] (dosage 5 g/ha), in test [1] (dosage 20 g/ha) and in test [1] (dosage 80 g/ha) was 0% in each case. Further, the “Herbicidal action against PHBPU” value in test [2] (dosage 5 g/ha), in test [2] (dosage 20 g/ha) and in test [2] (dosage 80 g/ha) was 0% in each case. The “Herbicidal action against VERPE” value in test [3] (dosage 5 g/ha), in test [3] (dosage 20 g/ha) and in test [3] (dosage 80 g/ha) was 0% in each case.

As to `Cc1cc(C(=O)Nc2ncnn2C)c(Cl)cc1S(C)(=O)=O` [No. 1-15], the “Herbicidal action against ABUTH” value in test [1] (dosage 5 g/ha), in test [1] (dosage 20 g/ha) and in test [1] (dosage 80 g/ha) was 90% each time. The “Herbicidal action against PHBPU” value in test [2] (dosage 5 g/ha), in test [2] (dosage 20 g/ha) and in test [2] (dosage 80 g/ha) was 80% throughout. For the same compound, the results for the “Herbicidal action against VERPE” value in test [3] (dosage 5 g/ha), in test [3] (dosage 20 g/ha) and in test [3] (dosage 80 g/ha) were 40%, 80% and 80%, respectively.
